Laboratory results: patent US6579705B2, “Process for preparing non-proteinogenic L-amino acids” (Consortium fur Elektrochemische Industrie GmbH, priority 2001, dated 2003)

What was measured:
[1] = biological target: T1, O-acetyl-L-serine sulfhydrylase CysM (Escherichia coli, UniProt P16703); type: biochemical; details: pH 7
T1 construct: StrepTagII (WSHPQFEK) (C); made in house; host or cells: E. coli DH5alpha carrying pFL145 (tet promoter, pASK-IBA3)
Protocol: (§1) In order to use the O-acetyl-L-serine sulfhydrylases to prepare non-proteinogenic amino acids, other nucleophilic compounds were used in the reaction in place of sulfide or thiosulfate. In order to detect them, a precolumn derivatization for amino acids was carried out using ortho-phthaldialdehyde. Using this method, it was possible to carry out a broad screening for suitable nucleophilic substrates.
(§2) The mixtures contained 4 mM O-acetyl-L-serine (added from a 200 mM stock solution in 500 mM Nasuccinate buffer, pH 5.5), 20 mM nucleophilic compound, 100 mM K phosphate buffer, pH 7.0, and 5 μg of purified enzyme/ml. The reaction was stopped with 1/100th the volume of acetic acid (96% v/v) and analyzed by HPLC using a HP aminoquant column (200 mm×2.1 mm) in accordance with the manufacturer's instructions supplied by Hewlett Packard, Waldbronn, Germany.

[2] = biological target: T2, O-acetyl-L-serine sulfhydrylase CysK (Escherichia coli, UniProt P0ABK5); type: biochemical; details: pH 7
T2 construct: StrepTagII (WSHPQFEK) (C); made in house; host or cells: E. coli BLR21(DE3) carrying pLE4 (T7 promoter, pRSET5a)
Protocol: as §1, §2

[3] = cited from earlier work
[4] = type: biochemical, Escherichia coli; details: 10 mM O-acetyl-serine, pH 7.0, 37° C., 5 μg purified enzyme/ml; for specific activity Acys (formation of cysteine using sulfide): 10 mM sodium sulfide
Protocol: The activity of O-acetyl-L-serine sulfhydrylases is measured by detecting the “natural” reaction product L-cysteine (Cys) or alternatively, in the case of CysM, also by detecting the reaction product as S-sulfo-L-cysteine (S-Cys). Both products can be detected very specifically and very sensitively using the test described by Gaitonde (1967, Biochem. J. 104: 627-633).
A typical test mixture contained 10 mM O-acetyl-serine (added from a 200 mM stock solution in 500 mM sodium succinate buffer, pH 5.5), 10 mM sodium sulfide or sodium thiosulfate, 100 mM potassium phosphate buffer, pH 7.0, and 5 μg of purified enzyme/ml, and is incubated at 37° C. The specific activity, A, is given in units/mg of protein, i.e. in μmol of product×min^−1×mg^−1 of protein. Acys denotes the specific activity of the formation of cysteine using sulfide. AS-Cys denotes the specific activity of the formation of S-sulfocysteine using thiosulfate. The specific activities using the proteins isolated in example 2 were: […]

T2 sequence (P0ABK5 whole entry, looked up): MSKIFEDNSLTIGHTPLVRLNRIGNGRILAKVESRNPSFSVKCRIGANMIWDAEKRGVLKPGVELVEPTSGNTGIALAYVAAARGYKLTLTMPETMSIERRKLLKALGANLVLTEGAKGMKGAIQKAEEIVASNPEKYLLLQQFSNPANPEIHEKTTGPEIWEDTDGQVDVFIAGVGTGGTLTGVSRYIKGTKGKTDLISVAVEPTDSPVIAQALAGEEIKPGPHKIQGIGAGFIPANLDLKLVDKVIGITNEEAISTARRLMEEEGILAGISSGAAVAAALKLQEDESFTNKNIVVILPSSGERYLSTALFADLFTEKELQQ

Molecule: 1,2-Pyrazole
- CysM conversion [1]: ++ (key: +++: conversion greater than 70% after 30 min; ++: conversion greater than 40% after 30 min; +: conversion greater than 10% after 30 min; −: conversion less than 5% after 30 min)
- CysK conversion [2]: ++ (key: +++: conversion greater than 70% after 30 min; ++: conversion greater than 40% after 30 min; +: conversion greater than 10% after 30 min; −: conversion less than 5% after 30 min)

Molecule: O[C@@H](CS)[C@@H](O)CS (racemic) [Dithiothreithol]
- CysM conversion [1]: +++ (key: +++: conversion greater than 70% after 30 min; ++: conversion greater than 40% after 30 min; +: conversion greater than 10% after 30 min; −: conversion less than 5% after 30 min)
- CysK conversion [2]: +++ (key: +++: conversion greater than 70% after 30 min; ++: conversion greater than 40% after 30 min; +: conversion greater than 10% after 30 min; −: conversion less than 5% after 30 min)

Molecule: c1nn[nH]n1 [1,2,3,4-Tetrazole]
- CysM conversion [1]: ++ (key: +++: conversion greater than 70% after 30 min; ++: conversion greater than 40% after 30 min; +: conversion greater than 10% after 30 min; −: conversion less than 5% after 30 min)
- CysK conversion [2]: +++ (key: +++: conversion greater than 70% after 30 min; ++: conversion greater than 40% after 30 min; +: conversion greater than 10% after 30 min; −: conversion less than 5% after 30 min)

Molecule: c1ccc2[nH]nnc2c1 [1,2,3-Benzotriazole]
- CysM conversion [1]: + (key: +++: conversion greater than 70% after 30 min; ++: conversion greater than 40% after 30 min; +: conversion greater than 10% after 30 min; −: conversion less than 5% after 30 min)
- CysK conversion [2]: ++ (key: +++: conversion greater than 70% after 30 min; ++: conversion greater than 40% after 30 min; +: conversion greater than 10% after 30 min; −: conversion less than 5% after 30 min)

Molecule: O=c1[nH]oc(=O)[nH]1 [1,2,4-Oxadiazolidine-3,5-dione]
- CysM conversion [1]: + (key: +++: conversion greater than 70% after 30 min; ++: conversion greater than 40% after 30 min; +: conversion greater than 10% after 30 min; −: conversion less than 5% after 30 min)
- CysK conversion [2]: − (key: +++: conversion greater than 70% after 30 min; ++: conversion greater than 40% after 30 min; +: conversion greater than 10% after 30 min; −: conversion less than 5% after 30 min)

Molecule: c1nc[nH]n1 [1,2,4-Triazole]
- CysM conversion [1]: ++ (key: +++: conversion greater than 70% after 30 min; ++: conversion greater than 40% after 30 min; +: conversion greater than 10% after 30 min; −: conversion less than 5% after 30 min)
- CysK conversion [2]: +++ (key: +++: conversion greater than 70% after 30 min; ++: conversion greater than 40% after 30 min; +: conversion greater than 10% after 30 min; −: conversion less than 5% after 30 min)

Molecule: Sc1nccs1 [2-Mercaptothiazole]
- CysM conversion [1]: +++ (key: +++: conversion greater than 70% after 30 min; ++: conversion greater than 40% after 30 min; +: conversion greater than 10% after 30 min; −: conversion less than 5% after 30 min)
- CysK conversion [2]: ++ (key: +++: conversion greater than 70% after 30 min; ++: conversion greater than 40% after 30 min; +: conversion greater than 10% after 30 min; −: conversion less than 5% after 30 min)

Molecule: Sc1nc[nH]n1 [3 Mercapto-1,2,4-triazole]
- CysM conversion [1]: +++ (key: +++: conversion greater than 70% after 30 min; ++: conversion greater than 40% after 30 min; +: conversion greater than 10% after 30 min; −: conversion less than 5% after 30 min)
- CysK conversion [2]: + (key: +++: conversion greater than 70% after 30 min; ++: conversion greater than 40% after 30 min; +: conversion greater than 10% after 30 min; −: conversion less than 5% after 30 min)

Molecule: O=C(O)c1ccc2[nH]nnc2c1 [5-Carboxy-1,2,3-benzotriazole]
- CysM conversion [1]: + (key: +++: conversion greater than 70% after 30 min; ++: conversion greater than 40% after 30 min; +: conversion greater than 10% after 30 min; −: conversion less than 5% after 30 min)
- CysK conversion [2]: ++ (key: +++: conversion greater than 70% after 30 min; ++: conversion greater than 40% after 30 min; +: conversion greater than 10% after 30 min; −: conversion less than 5% after 30 min)

Molecule: Nc1nc2nn[nH]c2c(=O)[nH]1 [8-Azaguanine]
- CysM conversion [1]: + (key: +++: conversion greater than 70% after 30 min; ++: conversion greater than 40% after 30 min; +: conversion greater than 10% after 30 min; −: conversion less than 5% after 30 min)
- CysK conversion [2]: − (key: +++: conversion greater than 70% after 30 min; ++: conversion greater than 40% after 30 min; +: conversion greater than 10% after 30 min; −: conversion less than 5% after 30 min)

Molecule: OCCS [Mercaptoethanol]
- CysM conversion [1]: +++ (key: +++: conversion greater than 70% after 30 min; ++: conversion greater than 40% after 30 min; +: conversion greater than 10% after 30 min; −: conversion less than 5% after 30 min)
- CysK conversion [2]: +++ (key: +++: conversion greater than 70% after 30 min; ++: conversion greater than 40% after 30 min; +: conversion greater than 10% after 30 min; −: conversion less than 5% after 30 min)

Molecule: CC(=O)OC[C@H](N)C(=O)O [O-Acetyl-L-serine]
- stability toward isomerization ([3]; pH 4.0): stable
- rate of isomerization to N-acetyl-L-serine ([3]; pH 7.6): 1 %×min^−1

Molecule: [SeH]c1ccccc1 [Phenylselenol]
- CysM conversion [1]: +++ (key: +++: conversion greater than 70% after 30 min; ++: conversion greater than 40% after 30 min; +: conversion greater than 10% after 30 min; −: conversion less than 5% after 30 min)
- CysK conversion [2]: ++ (key: +++: conversion greater than 70% after 30 min; ++: conversion greater than 40% after 30 min; +: conversion greater than 10% after 30 min; −: conversion less than 5% after 30 min)

Molecule: [N-]=[N+]=[N-].[Na+] [Sodium azide]
- CysM conversion [1]: +++ (key: +++: conversion greater than 70% after 30 min; ++: conversion greater than 40% after 30 min; +: conversion greater than 10% after 30 min; −: conversion less than 5% after 30 min)
- CysK conversion [2]: +++ (key: +++: conversion greater than 70% after 30 min; ++: conversion greater than 40% after 30 min; +: conversion greater than 10% after 30 min; −: conversion less than 5% after 30 min)

Molecule: [SeH2] [Sodium selenide]
- CysM conversion [1]: +++ (key: +++: conversion greater than 70% after 30 min; ++: conversion greater than 40% after 30 min; +: conversion greater than 10% after 30 min; −: conversion less than 5% after 30 min)
- CysK conversion [2]: +++ (key: +++: conversion greater than 70% after 30 min; ++: conversion greater than 40% after 30 min; +: conversion greater than 10% after 30 min; −: conversion less than 5% after 30 min)

Molecule: Sc1ccccc1 [Thiophenol]
- CysM conversion [1]: +++ (key: +++: conversion greater than 70% after 30 min; ++: conversion greater than 40% after 30 min; +: conversion greater than 10% after 30 min; −: conversion less than 5% after 30 min)
- CysK conversion [2]: ++ (key: +++: conversion greater than 70% after 30 min; ++: conversion greater than 40% after 30 min; +: conversion greater than 10% after 30 min; −: conversion less than 5% after 30 min)

B1: CysM: Escherichia coli O-acetyl-L-serine sulfhydrylase with C-terminal StrepTagII, purified by affinity chromatography (protein, UniProt P16703 1-303, looked up)
Cysteine synthase B: MSTLEQTIGNTPLVKLQRMGPDNGSEVWLKLEGNNPAGSVKDRAALSMIVEAEKRGEIKPGDVLIEATSGNTGIALAMIAALKGYRMKLLMPDNMSQERRAAMRAYGAELILVTKEQGMEGARDLALEMANRGEGKLLDQFNNPDNPYAHYTTTGPEIWQQTGGRITHFVSSMGTTGTITGVSRFMREQSKPVTIVGLQPEEGSSIPGIRRWPTEYLPGIFNASLVDEVLDIHQRDAENTMRELAVREGIFCGVSSGGAVAGALRVAKANPDAVVVAIICDRGDRYLSTGVFGEEHFSQGAGI
- specific activity Acys (formation of cysteine using sulfide) [4]: 199 units/mg
- specific activity AS-cys (formation of S-sulfocysteine using thiosulfate) ([4]; 10 mM sodium thiosulfate): 145 units/mg

B2: CysK: Escherichia coli O-acetyl-L-serine sulfhydrylase with C-terminal StrepTagII, purified by affinity chromatography (protein, UniProt P0ABK5 2-323, looked up)
Cysteine synthase A: SKIFEDNSLTIGHTPLVRLNRIGNGRILAKVESRNPSFSVKCRIGANMIWDAEKRGVLKPGVELVEPTSGNTGIALAYVAAARGYKLTLTMPETMSIERRKLLKALGANLVLTEGAKGMKGAIQKAEEIVASNPEKYLLLQQFSNPANPEIHEKTTGPEIWEDTDGQVDVFIAGVGTGGTLTGVSRYIKGTKGKTDLISVAVEPTDSPVIAQALAGEEIKPGPHKIQGIGAGFIPANLDLKLVDKVIGITNEEAISTARRLMEEEGILAGISSGAAVAAALKLQEDESFTNKNIVVILPSSGERYLSTALFADLFTEKELQQ
- specific activity Acys (formation of cysteine using sulfide) [4]: 140 units/mg
